Reference: patent US4760136A, “Chartreusin derivatives and salts thereof” (Ishihara Sangyo Kaisha, Ltd., priority 1984, dated 1988)
Where a name gives a salt, the structure may show the parent alone.

Legend:
P-388 leukemia cells = assay: Antitumor activity: P-388 leukemia cells inoculated intraperitoneally, drug administered intravenously, BDF1 mice; type: in vivo; details: BDF1 mice, P-388 i.p.; for response vs control in vivo at 20 mg/kg: dose b: 20 mg/kg × 3, i.v. on days 1, 5 and 9; for response vs control in vivo at 40 mg/kg / T/C (%) of MST: dose c: 40 mg/kg × 3, i.v. on days 1, 5 and 9; for response vs control in vivo at 80 mg/kg: dose f: 80 mg/kg × 3, i.v. on days 1, 5 and 9
Outline: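 Drug dosing was intravenous on the first, fifth and ninth days after intraperitoneal inoculation of P-388 leukemia cells (1×10^6 per mouse) into BDF1 mice. Vehicles were physiological saline alone, or saline with small amounts of sodium carboxymethyl cellulose or Tween-80.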

[1] = Acute toxicity, intravenous (once), ddY mice; type: in vivo; details: mouse, in vivo, iv, formulated per Preparation Example
Text: In Table 7 are shown acute toxicity values (LD50, mg/kg) in ddY mice in the case of intravenously administering (once) each of the compounds of this invention in the form of preparations shown in the Preparation Examples shown in Table 7.

[2] = Mus musculus, P388, iv, read-out: T/C (%) of MST

Row | Structure (SMILES) | response vs control in vivo at 20 mg/kg (P-388 leukemia cells; [2]) [%] | response vs control in vivo at 40 mg/kg (P-388 leukemia cells; [2]) [%] | LD50 [1] [mg/kg] | also measured
1 | COC1C(O)C(C)OC(OC2C(Oc3cccc4c(OC(=O)CCC(C)=O)c5c(=O)oc6ccc(C)c7c(=O)oc(c34)c5c67)OC(C)C3OC(c4ccccc4)OC32)C1O (centres unmarked) [Compound No. 153] | 203 | 243 | ≥ 40 | –
2 | COC1C(O)C(C)OC(OC2C(Oc3cccc4c(OC(=O)C(CCSC)NC(=O)OCc5ccccc5)c5c(=O)oc6ccc(C)c7c(=O)oc(c34)c5c67)OC(C)C3OC(C)(C)OC32)C1O (centres unmarked) [Compound No. 63] | – | – | ≥ 120 | response vs control in vivo at 50 mg/kg (P-388 leukemia cells; Mus musculus, P388, iv, dose d: 50 mg/kg × 3, i.v. on days 1, 5 and 9, read-out: T/C (%) of MST): 150%; response vs control in vivo at 100 mg/kg (P-388 leukemia cells; Mus musculus, P388, iv, dose g: 100 mg/kg × 3, i.v. on days 1, 5 and 9, read-out: T/C (%) of MST): 205%
3 | COC1C(O)C(C)OC(OC2C(Oc3cccc4c(OC(=O)C5CCCCC5NC(=O)C(F)(F)F)c5c(=O)oc6ccc(C)c7c(=O)oc(c34)c5c67)OC(C)C3OC(c4cccc(F)c4)OC32)C1O (single isomer, unassigned) [Compound No. 27, 6-O-(N-Trifluoroacetyl-2-Amino-Cyclohexanecarbonyl)-3',4'-O-(m-Fluorobenzylidene)-Chartreusin] | 179 | – | ≥ 30 | –
4 | COC1C(O)C(C)OC(OC2C(Oc3cccc4c(OC(=O)C(CN)C(C)C)c5c(=O)oc6ccc(C)c7c(=O)oc(c34)c5c67)OC(C)C3OC(c4ccccc4)OC32)C1O (stereo not drawn) [compound 35, 6-O-(α-isopropyl-β-alanyl)-3',4'-O-benzylidene-chartreusin phosphate] | – | 173 | ≥ 40 | –
5 | COC1C(O)C(C)OC(OC2C(Oc3cccc4c(OC(=O)CCCNC(=O)C(F)(F)F)c5c(=O)oc6ccc(C)c7c(=O)oc(c34)c5c67)OC(C)C3OC(c4ccc(F)cc4)OC32)C1O (centres unmarked) [compound 91] | – | – | ≥ 40 | T/C (%) of MST (P-388 leukemia cells): 173%
6 | COC1C(O)C(C)OC(OC2C(Oc3cccc4c(OC(=O)CCN5CCOCC5)c5c(=O)oc6ccc(C)c7c(=O)oc(c34)c5c67)OC(C)C3OC(c4ccccc4)OC32)C1O (centres unmarked) [compound 32] | 186 | – | ≥ 40 | response vs control in vivo at 10 mg/kg (P-388 leukemia cells; Mus musculus, P388, iv, dose a: 10 mg/kg × 3, i.v. on days 1, 5 and 9, read-out: T/C (%) of MST): 146%
7 | CCN(CC)CCC(=O)Oc1c2cccc(OC3OC(C)C4OC(c5ccccc5)OC4C3OC3OC(C)C(O)C(OC)C3O)c2c2oc(=O)c3c(C)ccc4oc(=O)c1c2c43 (stereo not drawn) [Compound No. 8, 6-O-(N,N-Diethyl-β-Alanyl)-3',4'-O-Benzylidene-Chartreusin Hydrochloride] | 186 | 220 | ≥ 40 | –
8 | COC1C(O)C(C)OC(OC2C(Oc3cccc4c(OC(=O)C(C)CNC(=O)OCc5ccccc5)c5c(=O)oc6ccc(C)c7c(=O)oc(c34)c5c67)OC(C)C3OC(c4ccccc4)OC32)C1O (stereo not drawn) [Compound No. 69, 6-O-(N-Carbobenzyloxy-β-Amino-Isobutyryl)-3,4-O-Benzylidene-Chartreusin] | 179 | 222 | ≥ 40 | –
9 | COC1C(O)C(C)OC(OC2C(Oc3cccc4c(OC(=O)CC(C)NC(=O)C(F)(F)F)c5c(=O)oc6ccc(C)c7c(=O)oc(c34)c5c67)OC(C)C3OC(c4ccccc4Cl)OC32)C1O (centres unmarked) [compound 94] | – | – | ≥ 80 | response vs control in vivo at 80 mg/kg (P-388 leukemia cells; [2]): 183%
10 | COC1C(O)C(C)OC(OC2C(Oc3cccc4c(OC(=O)CCCCCNC(=O)OCc5ccccc5)c5c(=O)oc6ccc(C)c7c(=O)oc(c34)c5c67)OC(C)C3OC(c4ccccc4)OC32)C1O (centres unmarked) [compound 119] | – | – | ≥ 40 | T/C (%) of MST (P-388 leukemia cells): 153%
11 | COC1C(O)C(C)OC(OC2C(Oc3cccc4c(OC(=O)c5ccccc5)c5c(=O)oc6ccc(C)c7c(=O)oc(c34)c5c67)OC(C)C3OC(C)(C)OC32)C1O (centres unmarked) [compound 242] | 137 | – | ≥ 40 | –
12 | COC1C(O)C(C)OC(OC2C(Oc3cccc4c(OC(=O)C(C)OCc5ccccc5)c5c(=O)oc6ccc(C)c7c(=O)oc(c34)c5c67)OC(C)C3OC(c4ccccc4)OC32)C1O (centres unmarked) [Compound No. 151] | 155 | 224 | ≥ 40 | –
13 | COC1C(O)C(C)OC(OC2C(Oc3cccc4c(OC(=O)CCC5CCCCC5)c5c(=O)oc6ccc(C)c7c(=O)oc(c34)c5c67)OC(C)C3OC(C)(C)OC32)C1O (centres unmarked) [Compound No. 240, 6-O-(3-Cryclohexyl-Propionyl)-3',4'-O-Isopropylidene-Chartreusin] | – | – | ≥ 60 | response vs control in vivo at 60 mg/kg (P-388 leukemia cells; Mus musculus, P388, iv, dose e: 60 mg/kg × 3, i.v. on days 1, 5 and 9, read-out: T/C (%) of MST): 158%
14 | COC1C(O)C(C)OC(OC2C(Oc3cccc4c(OC(=O)CN(C)C(=O)C(F)(F)F)c5c(=O)oc6ccc(C)c7c(=O)oc(c34)c5c67)OC(C)C3OC(c4ccccc4F)OC32)C1O (centres unmarked) [compound 82] | – | 148 | ≥ 80 | response vs control in vivo at 80 mg/kg (P-388 leukemia cells; [2]): 205%
15 | CO[C@H]1[C@@H](O)[C@@H](C)O[C@H](O[C@H]2[C@H](Oc3cccc4c(OC(=O)C=C(C)C(F)(F)F)c5c(=O)oc6ccc(C)c7c(=O)oc(c34)c5c67)O[C@H](C)[C@@H]3OC(C)(C)O[C@@H]32)[C@@H]1O [compound 198] | – | 176 | ≥ 80 | –
16 | COC1C(O)C(C)OC(OC2C(Oc3cccc4c(OC(=O)CCNC(C)=O)c5c(=O)oc6ccc(C)c7c(=O)oc(c34)c5c67)OC(C)C3OC(c4ccccc4)OC32)C1O (centres unmarked) [Compound No. 38] | 203 | – | ≥ 40 | –
17 | COC1C(O)C(C)OC(OC2C(Oc3cccc4c(OC(=O)CNC(=O)CNC(=O)CNC(=O)OCc5ccccc5)c5c(=O)oc6ccc(C)c7c(=O)oc(c34)c5c67)OC(C)C3OC(c4ccccc4)OC32)C1O (centres unmarked) [Compound No. 114, 6-O-(N-Carbobenzyloxy-Glycyl-Glycyl-Glycyl)-3',4'-O-Benzylidene-Chartreusin] | – | 130 | ≥ 40 | –
18 | COC1C(O)C(C)OC(OC2C(Oc3cccc4c(OC(=O)CC(C)CC(C)(C)C)c5c(=O)oc6ccc(C)c7c(=O)oc(c34)c5c67)OC(C)C3OC(c4ccccc4)OC32)C1O (centres unmarked) [Compound No. 236, 6-O-(3,5,5-Trimethyl-n-Hexanoyl)-3',4'-O-Benzylidene-Chartreusin] | – | 145 | ≥ 80 | –
19 | COC1C(O)C(C)OC(OC2C(Oc3cccc4c(OC(=O)C(Cc5ccccc5)NC(=O)OCc5ccccc5)c5c(=O)oc6ccc(C)c7c(=O)oc(c34)c5c67)OC(C)C3OC(c4ccc(Cl)cc4)OC32)C1O (centres unmarked) [compound 127] | 130 | – | ≥ 40 | –
20 | COC1C(O)C(C)OC(OC2C(Oc3cccc4c(OC(=O)CN(C)C(=O)C(F)(F)F)c5c(=O)oc6ccc(C)c7c(=O)oc(c34)c5c67)OC(C)C3OC(C)(C)OC32)C1O (centres unmarked) [compound 86] | – | – | ≥ 100 | response vs control in vivo at 80 mg/kg (P-388 leukemia cells; [2]): 136%
21 | COC1C(O)C(C)OC(OC2C(Oc3cccc4c(OC(=O)C(C)CN)c5c(=O)oc6ccc(C)c7c(=O)oc(c34)c5c67)OC(C)C3OC(c4ccccc4)OC32)C1O (stereo not drawn) [Compound No. 6, 6-O-(β-Amino-Isobutyryl)-3',4'-O-Benzylidene-Chartreusin Phosphate] | 182 | 242 | ≥ 40 | –
22 | COC1C(O)C(C)OC(OC2C(Oc3cccc4c(OC(=O)CCCCCN)c5c(=O)oc6ccc(C)c7c(=O)oc(c34)c5c67)OC(C)C3OC(c4ccccc4)OC32)C1O (centres unmarked) [Compound No. 19] | 184 | 233 | ≥ 40 | –
23 | COC1C(O)C(C)OC(OC2C(Oc3cccc4c(OC(=O)C5CC5)c5c(=O)oc6ccc(C)c7c(=O)oc(c34)c5c67)OC(C)C3OC(c4ccsc4)OC32)C1O (centres unmarked) [Compound No. 155] | 171 | 183 | ≥ 40 | –
